Measurements from patent US4088752A, “Oral composition for plaque and caries inhibition” (Gaba AG, priority 1974, dated 1978).

What was measured:
Format in all cases: in vivo, Osbourne-Mendel rats
[1] = Fluoride content of maxillary molar surfaces; settings: maxillary molars m1 + m2, 15 sec. in 2N hydrochloric acid under agitation; for Fluoride concentration, cumulated layers: first and second cumulated layers, standard error 12.4; for Fluoride concentration, second layer: standard error 10.4; for Fluoride concentration, first layer: standard error 16.6
Protocol: (§1) Groups of 10 Osbourne-Mendel rats, which are particularly suitable for caries-inhibition studies, were subjected to the following treatments:
(§2) 0.1 ml of the test solutions were applied once daily during the whole 20-day experimental period in which diet 2000a and tap water were available ad libitum. On day 22 the animals were superinfected twice with Streptococcus mutans OMZ 176. Caries, molar surface dissolution rate and fluoride content were assessed acccording to routine procedures.
Fluoride concentrations in the first, the second and the
first and second cumulated layers (ppm F) in the maxillary
molars (m1 + m2, 15 sec. in 2N hydrochloric acid under

[2] = Postmortal rat molar solubility (molar surface dissolution rate); settings: per mand: m1 + m2 in 10 ml 0.025 M acetate buffer pH 4, 60 min., 37° C; standard error 5.7
Protocol: as §2

[3] = test system: Streptococcus mutans OMZ 176; experiment: Rat caries experiment: smooth surface plaque, smooth surface caries and fissure caries after local application of aqueous test solutions; settings: for Average number per rat of smooth surface plaque extent (PU) / Average number per rat of advanced dentinal fissure lesions (B) / Average number per rat of smooth surface carious units (E): means of 10 animals; for Average number per rat of smooth surface plaque extent (PU): standard error 0.29; for Average number per rat of advanced dentinal fissure lesions (B): standard error 0.94; for Average number per rat of smooth surface carious units (E): standard error 1.81; for cariostatic effects of sodium fluoride and sodium trimetaphosphate together: smooth surface caries, combination of the two
Protocol: To examine the effect of the compounds used according to the present invention, a series of animal experiments were carried out. In these tests an aqueous solution of the test compounds was applied locally to determine its action in inhibiting plaque and caries.
(§3) On day 13 the animals with their dams were transferred to stainless-steel cages and fed powdered Nafag diet. The animals were weaned when 22 days old and distributed at random among the treatments.
as §2

[4] = Weight gain of rats during the 20-day experimental period; settings: means of 10 animals, standard error 3.4
Protocol: as §1, §3, §2

[5] = rats, 20-day experimental period

| Molecule | Fluoride concentration, cumulated layers [1] [ppm F] | Fluoride concentration, second layer [1] [ppm F] | Fluoride concentration, first layer [1] [ppm F] | Postmortal rat molar solubility [2] [μgP] | Average number per rat of smooth surface plaque extent (PU) ([3]; 20-day experimental period) | Average number per rat of advanced dentinal fissure lesions (B) ([3]; 20-day experimental period) | Average number per rat of smooth surface carious units (E) ([3]; 20-day experimental period) | Smooth surface caries (statement) [3, 5] | cariostatic effects of sodium fluoride and sodium trimetaphosphate together [3] | weight gains [4] [g] | further results |
| --- | --- | --- | --- | --- | --- | --- | --- | --- | --- | --- | --- |
| N,N,N'-tris-(2-hydroxyethyl)-N'-octadecyl-1,3-diaminopropanemonohydrofluoride monoorthophosphate [Treatment 9] | 74 | 53 | 92 | 130 | – | – | – | – | – | – | – |
| N,N,N'-tris-(2-hydroxyethyl)-N'-octadecyl-1,3-diaminopropanediorthophosphate [Treatment 8] | – | – | – | 121 | – | – | – | – | – | – | – |
| N-(2-hydroxyethyl)-2-heptadecen-9-yl-imidazoline orthophosphate [Example 6] | – | – | – | – | – | – | – | – | – | – | Smooth surface plaque, average extent (statement) [3, 5]: significantly lower (PF <0.001) |
| O=P1([O-])OP(=O)([O-])OP(=O)([O-])O1.[Na+].[Na+].[Na+] [Treatment 4, sodium trimetaphosphate] | – | – | – | – | 2.7 | 6.1 | 10.1 | effective | additive | 60 | – |
| sodium fluoride [Treatment 3] | – | – | – | – | 2.5 | 9.8 | 9.0 | effective | additive | 65 | – |
| N,N,N'-tris-(7-hydroxyethyl)-N'-octadecyl-1,3-diaminopropanepyrophosphate [Example 7] | 143 | 94 | 187 | – | – | – | – | – | – | – | – |
